Data: the supplement of paper PMC8671470

Columns and labels:
Conditions in all cases: 72 h
[1] = test system: HL-60; assay: area under dose-response curve (viability, 1 nM-10 uM) (fraction (0-1)); higher = more sensitive
Summary of the method: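 In 384-well plates, the full library was rescreened in duplicate on HL-60 cells in RPMI 1640 with 10% FBS, at 1–10,000 nM in five tenfold concentrations, for 72 h at 37 °C, 5% CO2. Each run also held DMSO or 100 nM of one of three metabolic inhibitors. Viability was measured by CellTiter-Glo and normalised to DMSO wells and to wells with proteasome inhibitor, present at 10 μM. Any area under the curve comes from four-parameter log-logistic fitting with drc and PharmacoGx.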

[2] = test system: Mono-Mac-6
Summary of the method: (§1)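 For the IC50, dose–response curves were fitted with a log-logistic model. The data came from fifteen myeloid leukaemia cell lines grown in RPMI 1640 at densities in the linear growth range and incubated in 384-well plates for 72 h at 37 °C under 5% CO2. Doses were five tenfold steps from 1 to 10,000 nM in duplicate, and luminescent ATP viability was normalised to vehicle and to a positive control at 10 µM before four-parameter fitting.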

[3] = test system: KU-812
Summary of the method: as §1

[4] = test system: BV-173
Summary of the method: as §1

[5] = test system: MV4-11
Summary of the method: as §1

[6] = test system: KG-1
Summary of the method: as §1

[7] = test system: SHI-1
Summary of the method: as §1

[8] = test system: LAMA-84
Summary of the method: as §1

[9] = test system: HL-60
Summary of the method: as §1

[10] = test system: K-562
Summary of the method: as §1

[11] = test system: KCL-22
Summary of the method: as §1

[12] = test system: NOMO-1
Summary of the method: as §1

[13] = test system: HEL
Summary of the method: as §1

[14] = test system: MOLM-13
Summary of the method: as §1

[15] = test system: ML-2
Summary of the method: as §1

[16] = test system: THP-1
Summary of the method: as §1

[17] = test system: Mono-Mac-6; assay: cell viability (% survival relative to DMSO control, bortezomib = 0%); higher = less cytotoxic
Summary of the method: (§2)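 After 72 h at 37 °C with 5% CO2, cell viability in 384-well plates was measured by CellTiter-Glo luminescence. The plates held compounds pre-printed at 1, 10, 100, 1000 or 10000 nM in duplicate, and cells from 10 AML and 5 CML lines seeded at densities titrated to linear growth. Percent survival is the duplicate mean, normalised to vehicle as 100% and a 10 µM positive control as 0%.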

[18] = test system: KU-812; assay: as above
Summary of the method: as §2

[19] = test system: BV-173; assay: as above
Summary of the method: as §2

[20] = test system: MV4-11; assay: as above
Summary of the method: as §2

[21] = test system: KG-1; assay: as above
Summary of the method: as §2

[22] = test system: SHI-1; assay: as above
Summary of the method: as §2

[23] = test system: HL-60; assay: as above
Summary of the method: as §2

[24] = test system: K-562; assay: as above
Summary of the method: as §2

[25] = test system: KCL-22; assay: as above
Summary of the method: as §2

[26] = test system: NOMO-1; assay: as above
Summary of the method: as §2

[27] = test system: HEL; assay: as above
Summary of the method: as §2

[28] = test system: MOLM-13; assay: as above
Summary of the method: as §2

[29] = test system: ML-2; assay: as above
Summary of the method: as §2

[30] = test system: THP-1; assay: as above
Summary of the method: as §2

Cc1coc2c1C(=O)C(=O)c1c-2ccc2c1CCCC2(C)C [Tanshinone IIA]
Conditions | area under dose-response curve, co-treatment: AZD3965 100 nM | area under dose-response curve, co-treatment: DMSO vehicle | area under dose-response curve, co-treatment: GSK2194069 100 nM | area under dose-response curve, co-treatment: pictilisib 100 nM | cell viability, 1 nM [%] | cell viability, 10 nM [%] | cell viability, 100 nM [%] | cell viability, 1000 nM [%] | cell viability, 10000 nM [%]
[1] | < 0.0301 | < 0.0301 | < 0.0301 | < 0.0301 | – | – | – | – | –
[17] | – | – | – | – | 90.9 | 99 | 102 | 91.1 | 87.7
[18] | – | – | – | – | 89.8 | 95.2 | 93.1 | 106 | 86.2
[19] | – | – | – | – | 91.9 | 103 | 105 | 97.3 | 87.7
[20] | – | – | – | – | 91.9 | 100 | 93.1 | 101 | 80.3
[21] | – | – | – | – | 106 | 97.7 | 94.8 | 102 | 76.6
[22] | – | – | – | – | 106 | 98.5 | 98.8 | 107 | 96.1
[23] | – | – | – | – | 113 | 96.6 | 95.1 | 98.7 | 79.3
[24] | – | – | – | – | 98.1 | 104 | 104 | 109 | 81.3
[25] | – | – | – | – | 114 | 98.8 | 107 | 105 | 59.9
[26] | – | – | – | – | 103 | 104 | 102 | 102 | 91.9
[27] | – | – | – | – | 91 | 100 | 107 | 111 | 97.9
[28] | – | – | – | – | 87.8 | 90.9 | 106 | 101 | 89.6
[29] | – | – | – | – | 106 | 111 | 103 | 101 | 77.6
[30] | – | – | – | – | 98.4 | 110 | 104 | 92.4 | 62.5

Conditions | IC50 (cell viability) [µM]
[2] | > 10
[3] | > 10
[4] | > 10
[5] | > 10
[6] | > 10
[7] | > 10
[8] | > 10
[9] | > 10
[10] | > 10
[11] | > 10
[12] | > 10
[13] | > 10
[14] | > 10
[15] | > 10
[16] | > 10

CCOP(=O)(OCC)C(=Cc1cc(C(C)(C)C)c(O)c(C(C)(C)C)c1)P(=O)(OCC)OCC
Conditions | area under dose-response curve, co-treatment: AZD3965 100 nM | area under dose-response curve, co-treatment: DMSO vehicle | area under dose-response curve, co-treatment: GSK2194069 100 nM | area under dose-response curve, co-treatment: pictilisib 100 nM | cell viability, 1 nM [%] | cell viability, 10 nM [%] | cell viability, 100 nM [%] | cell viability, 1000 nM [%] | cell viability, 10000 nM [%]
[1] | < 0.0301 | < 0.0301 | < 0.0301 | < 0.0301 | – | – | – | – | –
[17] | – | – | – | – | 93.3 | 99.4 | 129 | 75.2 | 57.6
[18] | – | – | – | – | 98.4 | 92.3 | 123 | 85.5 | 73.6
[19] | – | – | – | – | 92.7 | 96.8 | 121 | 89.9 | 64.5
[20] | – | – | – | – | 94.2 | 90.7 | 117 | 104 | 82
[21] | – | – | – | – | 96.3 | 91.2 | 121 | 91.2 | 67
[22] | – | – | – | – | 100 | 89.7 | 123 | 94.9 | 98.5
[23] | – | – | – | – | 93.9 | 94.9 | 159 | 65.9 | 83.4
[24] | – | – | – | – | 91.1 | 90.4 | 118 | 101 | 90.1
[25] | – | – | – | – | 98.7 | 108 | 125 | 108 | 94
[26] | – | – | – | – | 97 | 99.1 | 118 | 91.4 | 93.4
[27] | – | – | – | – | 92.1 | 95.8 | 109 | 89.8 | 108
[28] | – | – | – | – | 76 | 81.8 | 122 | 88.9 | 86.5
[29] | – | – | – | – | 95.1 | 98.1 | 134 | 78.9 | 80
[30] | – | – | – | – | 96.7 | 98.1 | 115 | 83.9 | 85.1

Conditions | IC50 (cell viability) [µM]
[2] | 6.9
[3] | > 10
[4] | > 10
[5] | > 10
[6] | > 10
[7] | > 10
[8] | > 10
[9] | > 10
[10] | > 10
[11] | > 10
[12] | > 10
[13] | > 10
[14] | > 10
[15] | > 10
[16] | > 10
